Key:
Assay type in all cases: in vivo
Viola tricolor [1] = experiment: Pre-emergence herbicidal action against VIOTR; settings: 320 g/ha
Outline: (§1)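 Pre-emergence soil-surface spray of formulated compound (WP or EC; 600 to 800 l/ha; 0.2% wetting agent) over seeds sown in sandy loam. After 3 weeks under greenhouse conditions, damage is estimated visually in percent against untreated plants.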

Abutilon theophrasti [2] = experiment: Pre-emergence herbicidal action against ABUTH; settings: visual score after 3 weeks vs untreated controls
Outline: as §1

Abutilon theophrasti [3] = experiment: Post-emergence herbicidal action against ABUTH
Outline: (§2)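 Greenhouse plants in sandy loam were sprayed at the one-leaf stage, 2 to 3 weeks after sowing, with WP or EC formulations as aqueous suspension or emulsion (600 to 800 l/ha water, 0.2% wetting agent). Visual damage was scored about 3 weeks later versus untreated controls, 0% = like control, 100% = dead.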

Veronica persica [4] = experiment: Post-emergence herbicidal action against VERPE; settings: visual assessment about 3 weeks after treatment
Outline: as §2

Stellaria media [5] = experiment: Pre-emergence herbicidal action against STEME
Outline: as §1

Echinochloa crus-galli [6] = experiment: Pre-emergence herbicidal action against ECHCG; settings: 320 g/ha; visual score after 3 weeks vs untreated controls
Outline: as §1

Amaranthus retroflexus [7] = experiment: Pre-emergence herbicidal action against AMARE; settings: visual score after 3 weeks vs untreated controls
Outline: as §1

Echinochloa crus-galli [8] = experiment: Post-emergence herbicidal action against ECHCG; settings: visual assessment about 3 weeks after treatment
Outline: as §2

Pharbitis purpurea = experiment: Post-emergence herbicidal action against PHBPU; settings: visual assessment about 3 weeks after treatment
Outline: as §2

Polygonum convolvulus [9] = experiment: Post-emergence herbicidal action against POLCO; settings: 80 g/ha, visual assessment about 3 weeks after treatment
Outline: as §2

Lolium rigidum [10] = experiment: Pre-emergence herbicidal action against LOLRI; settings: 320 g/ha
Outline: as §1

Alopecurus myosuroides [11] = experiment: Post-emergence herbicidal action against ALOMY
Outline: as §2

Setaria viridis [12] = experiment: Post-emergence herbicidal action against SETVI; settings: visual assessment about 3 weeks after treatment
Outline: as §2

Cyperus esculentus [13] = experiment: Post-emergence herbicidal action against CYPES; settings: 80 g/ha, visual assessment about 3 weeks after treatment
Experimental: (§3) Seeds of monocotyledonous and dicotyledonous weed and crop plants are laid out in sandy loam soil in wood-fiber pots, covered with soil and cultivated in a greenhouse under good growth conditions. 2 to 3 weeks after sowing, the test plants are treated at the one-leaf stage. The compounds of the invention, formulated in the form of wettable powders (WP) or as emulsion concentrates (EC), are then sprayed onto the green parts of the plants in the form of an aqueous suspension or emulsion at a water application rate equivalent to 600 to 800 l/ha, with addition of 0.2% wetting agent. After the test plants have been left to stand in the greenhouse under optimal growth conditions for about 3 weeks, the action of the preparations is assessed visually in comparison to untreated controls (herbicidal action in percent (%): 100% activity=the plants have died, 0% activity=like control plants). […] The tables below illustrate, in an illustrative manner, the post-emergence herbicidal action of the compounds of the invention, the herbicidal activity being stated in percent.

Amaranthus retroflexus [14] = experiment: Post-emergence herbicidal action against AMARE; settings: visual assessment about 3 weeks after treatment
Outline: as §2

Polygonum convolvulus [15] = experiment: Pre-emergence herbicidal action against POLCO
Outline: as §1

Veronica persica [16] = experiment: Pre-emergence herbicidal action against VERPE
Outline: as §1

Alopecurus myosuroides [17] = experiment: Pre-emergence herbicidal action against ALOMY; settings: visual score after 3 weeks vs untreated controls
Outline: as §1

Stellaria media [18] = experiment: Post-emergence herbicidal action against STEME; settings: visual assessment about 3 weeks after treatment
Outline: as §2

Matricaria inodora [19] = experiment: Pre-emergence herbicidal action against MATIN; settings: visual score after 3 weeks vs untreated controls
Outline: as §1

Avena fatua [20] = experiment: Post-emergence herbicidal action against AVEFA; settings: visual assessment about 3 weeks after treatment
Outline: as §2

Cyperus esculentus [21] = experiment: Pre-emergence herbicidal action against CYPES; settings: visual score after 3 weeks vs untreated controls
Outline: as §1

Viola tricolor [22] = experiment: Post-emergence herbicidal action against VIOTR
Outline: as §2

Avena fatua [23] = experiment: Pre-emergence herbicidal action against AVEFA; settings: visual score after 3 weeks vs untreated controls
Outline: as §1

Setaria viridis [24] = experiment: Pre-emergence herbicidal action against SETVI
Outline: as §1

Matricaria inodora [25] = experiment: Post-emergence herbicidal action against MATIN; settings: visual assessment about 3 weeks after treatment
Outline: as §2

Hordeum murinum = experiment: Pre-emergence herbicidal action against HORMU; settings: 320 g/ha; visual score after 3 weeks vs untreated controls
Outline: as §1

Lolium rigidum [26] = experiment: Post-emergence herbicidal action against LOLRI; settings: 80 g/ha
Experimental: as §3

## CCn1nnnc1NC(=O)c1ccc(C(F)(F)F)c(C(=O)N2CCCC2)c1Cl [Example 2-152]
Viola tricolor [1]
  Pre-emergence action against VIOTR: 100%
Abutilon theophrasti [2]; 20 g/ha
  Pre-emergence action against ABUTH: 100%
Abutilon theophrasti [2]; 80 g/ha
  Pre-emergence action against ABUTH: 100%
Abutilon theophrasti [2]; Dosage column 320 g/ha (heading prints 3200 g/ha)
  Pre-emergence action against ABUTH: 100%
Abutilon theophrasti [3]; 5 g/ha
  Post-emergence action against ABUTH: 80%
Abutilon theophrasti [3]; 20 g/ha
  Post-emergence action against ABUTH: 80%
Abutilon theophrasti [3]; 80 g/ha
  Post-emergence action against ABUTH: 80%
Veronica persica [4]; 5 g/ha
  Post-emergence action against VERPE in %: 80%
Veronica persica [4]; 20 g/ha
  Post-emergence action against VERPE in %: 80%
Veronica persica [4]; 80 g/ha
  Post-emergence action against VERPE in %: 80%
Stellaria media [5]; 20 g/ha
  Pre-emergence action against STEME: 100%
Stellaria media [5]; 80 g/ha
  Pre-emergence action against STEME: 100%
Stellaria media [5]; 320 g/ha
  Pre-emergence action against STEME: 100%
Echinochloa crus-galli [6]
  Pre-emergence action against ECHCG: 100%
Amaranthus retroflexus [7]; 20 g/ha
  Pre-emergence action against AMARE: 100%
Amaranthus retroflexus [7]; 80 g/ha
  Pre-emergence action against AMARE: 100%
Amaranthus retroflexus [7]; 320 g/ha
  Pre-emergence action against AMARE: 100%
Echinochloa crus-galli [8]; 20 g/ha
  Post-emergence action against ECHCG in %: 100%
Echinochloa crus-galli [8]; 80 g/ha
  Post-emergence action against ECHCG in %: 100%
Pharbitis purpurea; 20 g/ha
  Post-emergence action against PHBPU in %: 80%
Pharbitis purpurea; 80 g/ha
  Post-emergence action against PHBPU in %: 80%
Polygonum convolvulus [9]
  Post-emergence action against POLCO in %: 80%
Lolium rigidum [10]
  Pre-emergence action against LOLRI: 100%
Alopecurus myosuroides [11]; 5 g/ha
  Post-emergence action against ALOMY: 80%
Alopecurus myosuroides [11]; 20 g/ha
  Post-emergence action against ALOMY: 90%
Alopecurus myosuroides [11]; 80 g/ha
  Post-emergence action against ALOMY: 100%
Setaria viridis [12]; 20 g/ha
  Post-emergence action against SETVI in %: 80%
Setaria viridis [12]; 80 g/ha
  Post-emergence action against SETVI in %: 100%
Cyperus esculentus [13]
  Post-emergence action against CYPES in %: 80%
Amaranthus retroflexus [14]; 5 g/ha
  Post-emergence action against AMARE in %: 100%
Amaranthus retroflexus [14]; 20 g/ha
  Post-emergence action against AMARE in %: 100%
Amaranthus retroflexus [14]; 80 g/ha
  Post-emergence action against AMARE in %: 100%
Polygonum convolvulus [15]; 80 g/ha
  Pre-emergence action against POLCO: 80%
Polygonum convolvulus [15]; 320 g/ha
  Pre-emergence action against POLCO: 90%
Veronica persica [16]; 80 g/ha
  Pre-emergence action against VERPE: 80%
Veronica persica [16]; 320 g/ha
  Pre-emergence action against VERPE: 100%
Alopecurus myosuroides [17]; 80 g/ha
  Pre-emergence action against ALOMY: 90%
Alopecurus myosuroides [17]; 320 g/ha
  Pre-emergence action against ALOMY: 100%
Stellaria media [18]; 5 g/ha
  Post-emergence action against STEME in %: 80%
Stellaria media [18]; 20 g/ha
  Post-emergence action against STEME in %: 90%
Stellaria media [18]; 80 g/ha
  Post-emergence action against STEME in %: 90%
Matricaria inodora [19]; 20 g/ha
  Pre-emergence action against MATIN: 90%
Matricaria inodora [19]; 80 g/ha
  Pre-emergence action against MATIN: 100%
Matricaria inodora [19]; 320 g/ha
  Pre-emergence action against MATIN: 100%
Avena fatua [20]; 5 g/ha
  Post-emergence action against AVEFA in %: 80%
Avena fatua [20]; 20 g/ha
  Post-emergence action against AVEFA in %: 100%
Avena fatua [20]; 80 g/ha
  Post-emergence action against AVEFA in %: 100%
Cyperus esculentus [21]; 80 g/ha
  Pre-emergence action against CYPES: 80%
Cyperus esculentus [21]; 320 g/ha
  Pre-emergence action against CYPES: 100%
Viola tricolor [22]; 20 g/ha
  Post-emergence action against VIOTR in %: 100%
Viola tricolor [22]; 80 g/ha
  Post-emergence action against VIOTR in %: 100%
Avena fatua [23]; 80 g/ha
  Pre-emergence action against AVEFA: 100%
Avena fatua [23]; 320 g/ha
  Pre-emergence action against AVEFA: 100%
Setaria viridis [24]; 80 g/ha
  Pre-emergence action against SETVI: 90%
Setaria viridis [24]; 320 g/ha
  Pre-emergence action against SETVI: 100%
Matricaria inodora [25]; 5 g/ha
  Post-emergence action against MATIN in %: 80%
Matricaria inodora [25]; 20 g/ha
  Post-emergence action against MATIN in %: 80%
Matricaria inodora [25]; 80 g/ha
  Post-emergence action against MATIN in %: 100%
Hordeum murinum
  Pre-emergence action against HORMU: 80%
Lolium rigidum [26]
  Post-emergence action against LOLRI in %: 90%
